Literature values as cited in US20090082295A1, “COMBINATIONS AND METHODS OF USING AN IMMUNOMODULATORY OLIGODEOXYNUCLEOTIDE” (PFIZER INC., priority 2005, published 2009).
Structures can show the parent of a compound that is named as a salt.

Assays:
axonal microtubules = conditions: intact tectal plates from mouse embryos
mitotic microtubules = conditions: intact tectal plates from mouse embryos
mammalian cells = conditions: high concentrations
[1] = system: Lewis lung murine xenograft
[2] = system: LX-1 human lung xenograft
[3] = combination with cisplatin
[4] = system: CALU-6 human lung xenograft
[5] = system: topoisomerase I purified from human and rodent tumor cell lines; conditions: purified enzyme
[6] = system: rat mammary carcinoma induced by dimethylbenzanthracene (DMBA)
[7] = system: xenotransplant models of colon cancer; conditions: nude (athymic) mice

CCC1=C[C@@H]2CN(C1)Cc1c([nH]c3ccccc13)[C@@](C(=O)OC)(c1cc3c(cc1OC)N(C)[C@H]1[C@@](O)(C(=O)OC)[C@H](OC(C)=O)[C@]4(CC)C=CCN5CC[C@]31[C@@H]54)C2 (relative stereo) [vinorelbine, 3′,4′-didehydro-4′-deoxy-C′-norvincaleukoblastine[R—(R*,R*)-2,3-dihydroxybutanedioate (1:2) (salt)]]
concentration producing depolymerization of axonal microtubules (axonal microtubules): 40 µM | concentration inhibiting mitotic microtubule formation, inducing a blockade of cells at metaphase (mitotic microtubules): 2 µM

COc1cc([C@@H]2c3cc4c(cc3[C@@H](O[C@@H]3O[C@@H]5CO[C@@H](C)O[C@H]5[C@H](O)[C@H]3O)[C@H]3COC(=O)[C@H]23)OCO4)cc(OC)c1O [Etoposide, 4′-Demethylepipodophyllotoxin 9-[4,6-0-(R)-ethylidene-β-D-glucopyranoside]]
concentration at which lysis of cells entering mitosis is observed (mammalian cells): ≥ 10 µg/mL

Nc1ccn([C@@H]2O[C@H](CO)[C@@H](O)C2(F)F)c(=O)n1 [Gemcitabine, 2′-deoxy-2′,2′-difluorocytidine monohydrochloride (β-isomer)]
activity in combination with cisplatin (NCI-H460 xenograft): minimal activity | interaction with cisplatin [1]: synergistic | activity in combination with cisplatin (NCI-H520 xenograft): minimal activity | activity in combination with cisplatin [2]: showed activity | activity with cisplatin in vitro [3]: dose-dependent synergistic activity | activity in combination with cisplatin [4]: showed activity

CCc1c2c(nc3ccc(O)cc13)-c1cc3c(c(=O)n1C2)COC(=O)[C@]3(O)CC [SN-38]
potency as inhibitor of topoisomerase I relative to irinotecan [5]: approximately 1000 times

CC/C(=C(\c1ccccc1)c1ccc(OCCN(C)C)cc1)c1ccccc1 [Tamoxifen, (Z)2-[4-(1,2-diphenyl-1-butenyl)phenoxy]-N, Ndimethylethanamine 2-hydroxy-1,2,3-propanetricarboxylate (1:1)]
effect on DMBA-induced mammary carcinoma [6]: inhibits the induction of rat mammary carcinoma induced by dimethylbenzanthracene (DMBA) and causes the regression of already established DMBA-induced tumors

CC[C@]1(O)C[C@@H]2CN(CCc3c([nH]c4ccccc34)[C@@](C(=O)OC)(c3cc4c(cc3OC)N(C)[C@H]3[C@@](O)(C(=O)OC)[C@H](OC(C)=O)[C@]5(CC)C=CCN6CC[C@]43[C@@H]65)C2)C1 [vinblastine]
concentration producing depolymerization of axonal microtubules (axonal microtubules): 30 µM | concentration inhibiting mitotic microtubule formation, inducing a blockade of cells at metaphase (mitotic microtubules): 2 µM

CC[C@]1(O)C[C@H]2CN(CCc3c([nH]c4ccccc34)[C@@](C(=O)OC)(c3cc4c(cc3OC)N(C=O)[C@H]3[C@@](O)(C(=O)OC)[C@H](OC(C)=O)[C@]5(CC)C=CCN6CC[C@]43[C@@H]65)C2)C1 [vincristine]
concentration producing depolymerization of axonal microtubules (axonal microtubules): 5 µM | concentration inhibiting mitotic microtubule formation, inducing a blockade of cells at metaphase (mitotic microtubules): 2 µM

bevacizumab: recombinant humanized monoclonal IgG1 antibody that binds human VEGF
effect on microvascular growth and metastatic disease progression [7]: reduction of microvascular growth and inhibition of metastatic disease progression
